Reference: US10323007B1, “N2N N4-disubstituted quinazoline-2,4-diamines and uses thereof” (University of South Florida, priority 2016, dated 2019)
In brackets after ≈: the same amount, converted by molar mass. Read-outs that look alike come from different tables or passages of the source.

Key:
Type in all cases: cell-based, Acinetobacter baumannii
A. baumannii 1403 = assay: MIC assay, strain 1403
Description: (§1) MIC and MBC assays were performed in this study as documented by us previously.^17,23,24,25 The A. baumannii strains used are detailed in Table 7.

A. baumannii 1646 [1] = assay: MIC assay, strain 1646
Description: as §1

A. baumannii 1649 = assay: MIC assay, strain 1649
Description: as §1

A. baumannii 1650 = assay: MIC assay, strain 1650
Description: as §1

A. baumannii 1651 = assay: MIC assay, strain 1651
Description: as §1

A. baumannii 1652 = assay: MIC assay, strain 1652
Description: as §1

A. baumannii = assay: MIC assay, A. baumannii isolates (strain not given); conditions: for MIC: Acinetobacter baumannii, strain not given, read-out: MIC
Description: as §1

A. baumannii 1646 [2] = assay: minimal bactericidal concentration (MBC) assay, strain 1646; conditions: isolate 1646
Excerpt: Lead quinazolines 4, 5, 26, 29, 27, and 30 were selected to be further evaluated for antimicrobial effects. The first assay utilized was a minimal bactericidal concentration (MBC) assay, to assess whether leads compounds were bacteriostatic or bactericidal. The six lead agents were screened to identify their MBC90 towards each of the six A. baumannii isolates used in the SAR studies (Table 8), however for simplicity only the representative data for isolate 1646 is detailed below (Table 6). […] Further to this, we were able to obtain complete eradication of bacterial growth for these two compounds at 1 μM for 24 and 5 μM for 25.
as §1

[3] = Acinetobacter baumannii, strain 1403, Tables 1, 3, 4, 5 and footnotes, read-out: 1403 MIC
[4] = Acinetobacter baumannii, strain 1646, Tables 1, 3, 4, 5 and footnotes, read-out: 1646 MIC
[5] = Acinetobacter baumannii, strain 1649, Tables 1, 3, 4, 5 and footnotes, read-out: 1649 MIC
[6] = Acinetobacter baumannii, strain 1650, Tables 1, 3, 4, 5 and footnotes, read-out: 1650 MIC
[7] = Acinetobacter baumannii, strain 1651, Tables 1, 3, 4, 5 and footnotes, read-out: 1651 MIC
[8] = Acinetobacter baumannii, strain 1652, Tables 1, 3, 4, 5 and footnotes, read-out: 1652 MIC
[9] = Acinetobacter baumannii, strain 1403, Table 2, read-out: 1403 MIC
[10] = Acinetobacter baumannii, strain 1646, Table 2, read-out: 1646 MIC
[11] = Acinetobacter baumannii, strain 1649, Table 2, read-out: 1649 MIC
[12] = Acinetobacter baumannii, strain 1650, Table 2, read-out: 1650 MIC
[13] = Acinetobacter baumannii, strain 1651, Table 2, read-out: 1651 MIC
[14] = Acinetobacter baumannii, strain 1652, Table 2, read-out: 1652 MIC
[15] = Acinetobacter baumannii, 1403, read-out: 1403 MIC
[16] = Acinetobacter baumannii, 1646, read-out: 1646 MIC
[17] = Acinetobacter baumannii, 1649, read-out: 1649 MIC
[18] = Acinetobacter baumannii, 1650, read-out: 1650 MIC
[19] = Acinetobacter baumannii, 1651, read-out: 1651 MIC
[20] = Acinetobacter baumannii, 1652, read-out: 1652 MIC

Compound | MIC (A. baumannii 1403; [3]) [µM] | MIC (A. baumannii 1646 [1]; [4]) [µM] | MIC (A. baumannii 1649; [5]) [µM] | MIC (A. baumannii 1650; [6]) [µM] | MIC (A. baumannii 1651; [7]) [µM] | MIC (A. baumannii 1652; [8]) [µM] | further results
CNc1nc(NCc2ccccc2)c2cc(OC)ccc2n1 [Compound 12, N^4-Benzyl-6-methoxy-N^2-methylquinazoline-2,4-diamine] | > 50 | 6 (≈ 1.77 µg/mL) | > 50 | > 50 | 8 (≈ 2.35 µg/mL) | > 50 | –
C=Cc1ccc2nc(NCc3ccccc3)nc(NC)c2c1 [Compound 22, N^2-Benzyl-N^4-methyl-6-vinylquinazoline-2,4-diamine] | 25 (≈ 7.26 µg/mL) | 2 (≈ 0.581 µg/mL) | 10 (≈ 2.9 µg/mL) | 20 (≈ 5.81 µg/mL) | 25 (≈ 7.26 µg/mL) | 25 (≈ 7.26 µg/mL) | –
CNc1nc(NCc2ccccc2)nc2cc(Cl)ccc12 [Compound 2, N^2-Benzyl-7-chloro-N^4-methylquinazoline-2,4-diamine] | > 50 | 6 (≈ 1.79 µg/mL) | 30 (≈ 8.96 µg/mL) | > 50 | 10 (≈ 2.99 µg/mL) | 50 (≈ 14.9 µg/mL) | –
CNc1nc(NCc2ccccc2)nc2ccc(OC)cc12 [Compound 3, N^2-Benzyl-6-methoxy-N^4-methylquinazoline-2,4-diamine] | > 50 | 2 (≈ 0.589 µg/mL) | 25 (≈ 7.36 µg/mL) | 50 (≈ 14.7 µg/mL) | 10 (≈ 2.94 µg/mL) | 30 (≈ 8.83 µg/mL) | –
CNc1nc(NCCc2ccccc2)nc2ccc(OC)cc12 [Compound 18, 6-Methoxy-N^4-methyl-N^2-phenethylquinazoline-2,4-diamine] | > 50 | 4 (≈ 1.23 µg/mL) | > 50 | > 50 | > 50 | > 50 | MIC (A. baumannii): 2 to 4 µM (≈ 0.617 to 1.23 µg/mL)
CNc1nc(NCc2ccccc2)c2ccc(Br)cc2n1 [Compound 14, N^4-Benzyl-7-bromo-N^2-methylquinazoline-2,4-diamine] | > 50 | 4 (≈ 1.37 µg/mL) | > 50 | > 50 | > 50 | > 50 | –
CNc1nc(NCCc2ccccc2)nc2ccccc12 [Compound 16, N^4-Methyl-N^2-phenethylquinazoline-2,4-diamine] | > 50 | 12 (≈ 3.34 µg/mL) | > 50 | > 50 | > 50 | > 50 | fold more active than the benzyl analogue 8 (A. baumannii; MIC comparison): 4 fold
CNc1nc(NCc2ccccc2)nc2ccc(C3=CCCC3)cc12 [Compound 28, N^2-Benzyl-6-(cyclopent-1-en-1-yl)-N^4-methylquinazoline-2,4-diamine] | > 50 | 2 (≈ 0.661 µg/mL) | 50 (≈ 16.5 µg/mL) | > 50 | 30 (≈ 9.91 µg/mL) | > 50 | –
CNc1nc(NCc2ccccc2)c2cc(C)ccc2n1 [Compound 11, N^4-Benzyl-N^2,6-dimethylquinazoline-2,4-diamine] | > 50 | 6 (≈ 1.67 µg/mL) | > 50 | > 50 | 12 (≈ 3.34 µg/mL) | > 50 | –
CNc1nc(NCc2ccccc2)nc2cc(Br)ccc12 [Compound 6, N^2-Benzyl-7-bromo-N^4-methylquinazoline-2,4-diamine] | – | – | – | – | – | – | MIC (A. baumannii 1403; [9]): > 50 µM; MIC (A. baumannii 1646 [1]; [10]): 6 µM (≈ 2.06 µg/mL); MIC (A. baumannii 1649; [11]): 25 µM (≈ 8.58 µg/mL); MIC (A. baumannii 1650; [12]): > 50 µM; MIC (A. baumannii 1651; [13]): 10 µM (≈ 3.43 µg/mL); MIC (A. baumannii 1652; [14]): > 50 µM
CNc1nc(NCc2ccccc2)c2ccc(C)cc2n1 [Compound 15, N^4-Benzyl-N^2,7-dimethylquinazoline-2,4-diamine] | > 50 | 12 (≈ 3.34 µg/mL) | > 50 | > 50 | > 50 | > 50 | –
C=C(C)c1ccc2nc(NCc3ccccc3)nc(NC)c2c1 [Compound 24, N^2-Benzyl-N^4-methyl-6-(prop-1-en-2-yl)quinazoline-2,4-diamine] | > 50 | 2 (≈ 0.609 µg/mL) | 25 (≈ 7.61 µg/mL) | > 50 | 10 (≈ 3.04 µg/mL) | > 50 | concentration giving complete eradication of bacterial growth (A. baumannii 1646 [2]): 1 µM
CNc1nc(NCc2ccccc2)c2cc(Br)ccc2n1 [Compound 10, N^4-Benzyl-6-bromo-N^2-methylquinazoline-2,4-diamine] | > 50 | 2 (≈ 0.686 µg/mL) | 50 (≈ 17.2 µg/mL) | > 50 | > 50 | > 50 | –
CNc1nc(NCc2ccccc2)nc2ccccc12 [Compound 8, N^2-benzyl-N^4-methylquinazolin-2,4-diamine] | – | – | – | – | – | – | MIC (A. baumannii 1403; [9]): > 50 µM; MIC (A. baumannii 1646 [1]; [10]): 50 µM (≈ 13.2 µg/mL); MIC (A. baumannii 1649; [11]): > 50 µM; MIC (A. baumannii 1650; [12]): > 50 µM; MIC (A. baumannii 1651; [13]): > 50 µM; MIC (A. baumannii 1652; [14]): > 50 µM; MIC (A. baumannii): ≥ 50 µM
CNc1nc(NCc2ccccc2)nc2cc(C)ccc12 [Compound 7, N^2-Benzyl-N^4,7-dimethylquinazoline-2,4-diamine] | – | – | – | – | – | – | MIC (A. baumannii 1403; [9]): 50 µM (≈ 13.9 µg/mL); MIC (A. baumannii 1646 [1]; [10]): 12 µM (≈ 3.34 µg/mL); MIC (A. baumannii 1649; [11]): 25 µM (≈ 6.96 µg/mL); MIC (A. baumannii 1650; [12]): 50 µM (≈ 13.9 µg/mL); MIC (A. baumannii 1651; [13]): 12 µM (≈ 3.34 µg/mL); MIC (A. baumannii 1652; [14]): 35 µM (≈ 9.74 µg/mL)
CNc1nc(NCc2ccccc2)nc2ccc(-c3ccco3)cc12 [Compound 32, N^2-Benzyl-6-(furan-2-yl)-N^4-methylquinazoline-2,4-diamine] | – | – | – | – | – | – | MIC (A. baumannii 1403; [15]): 40 µM (≈ 13.2 µg/mL); MIC (A. baumannii 1646 [1]; [16]): 25 µM (≈ 8.26 µg/mL); MIC (A. baumannii 1649; [17]): > 50 µM; MIC (A. baumannii 1650; [18]): > 50 µM; MIC (A. baumannii 1651; [19]): 15 µM (≈ 4.96 µg/mL); MIC (A. baumannii 1652; [20]): > 50 µM
CNc1nc(NCc2ccccc2)c2cc(Cl)ccc2n1 [Compound 9, N^4-Benzyl-6-chloro-N^2-methylquinazoline-2,4-diamine] | > 50 | 4 (≈ 1.2 µg/mL) | 50 (≈ 14.9 µg/mL) | 50 (≈ 14.9 µg/mL) | 6 (≈ 1.79 µg/mL) | > 50 | –
CNc1nc(NCc2ccccc2)c2ccc(Cl)cc2n1 [Compound 13, N^4-Benzyl-7-chloro-N^2-methylquinazoline-2,4-diamine] | > 50 | 4 (≈ 1.2 µg/mL) | > 50 | > 50 | > 50 | > 50 | –
CNc1nc(NCCc2ccccc2)nc2ccc(C)cc12 [Compound 20, N^4,6-Dimethyl-N^2-phenethylquinazoline-2,4-diamine] | > 50 | 2 (≈ 0.585 µg/mL) | > 50 | > 50 | 10 (≈ 2.92 µg/mL) | > 50 | MIC (A. baumannii): 2 to 4 µM (≈ 0.585 to 1.17 µg/mL)
CNc1nc(NCCc2ccccc2)nc2ccc(Br)cc12 [Compound 19, 6-Bromo-N^4-methyl-N^2-phenethylquinazoline-2,4-diamine] | > 50 | 2 (≈ 0.715 µg/mL) | > 50 | > 50 | 10 (≈ 3.57 µg/mL) | > 50 | MIC (A. baumannii): 2 to 4 µM (≈ 0.715 to 1.43 µg/mL)
CNc1nc(NCc2ccccc2)nc2ccc(Cl)cc12 [Compound 1, N^2-Benzyl-6-chloro-N^4-methylquinazoline-2,4-diamine] | 50 (≈ 14.9 µg/mL) | 2 (≈ 0.598 µg/mL) | 25 (≈ 7.47 µg/mL) | 15 (≈ 4.48 µg/mL) | 6 (≈ 1.79 µg/mL) | 20 (≈ 5.98 µg/mL) | –
CCc1ccc2nc(NCc3ccccc3)nc(NC)c2c1 [Compound 23, N^2-Benzyl-6-ethyl-N^4-methylquinazoline-2,4-diamine] | 30 (≈ 8.77 µg/mL) | 2 (≈ 0.585 µg/mL) | 10 (≈ 2.92 µg/mL) | 30 (≈ 8.77 µg/mL) | 2 (≈ 0.585 µg/mL) | 30 (≈ 8.77 µg/mL) | –
CNc1nc(NCc2ccccc2)nc2ccc(-c3ccccc3)cc12 [Compound 31, N^2-Benzyl-N^4-methyl-6-phenylquinazoline-2,4-diamine] | – | – | – | – | – | – | MIC (A. baumannii 1403; [15]): 30 µM (≈ 10.2 µg/mL); MIC (A. baumannii 1646 [1]; [16]): 10 µM (≈ 3.4 µg/mL); MIC (A. baumannii 1649; [17]): 20 µM (≈ 6.81 µg/mL); MIC (A. baumannii 1650; [18]): 20 µM (≈ 6.81 µg/mL); MIC (A. baumannii 1651; [19]): 2 µM (≈ 0.681 µg/mL); MIC (A. baumannii 1652; [20]): 50 µM (≈ 17 µg/mL)
CNc1nc(NCCc2ccccc2)nc2ccc(Cl)cc12 [Compound 17, 6-Chloro-N^4-methyl-N^2-phenethylquinazoline-2,4-diamine] | > 50 | 2 (≈ 0.626 µg/mL) | > 50 | > 50 | > 50 | > 50 | MIC (A. baumannii): 2 to 4 µM (≈ 0.626 to 1.25 µg/mL)
